Results as given in US6573218B1, “Fused-benzene derivatives useful as herbicides” (Ishihara Sangyo Kaisha, Ltd., priority 1998, dated 2003).

Columns and labels:
Format in all cases: in vivo
[1] = system: upland rice (Ory0a sp., var.Tebonnet, RICE); test: Pre-emerge greenhouse crop damage test; details: in vivo
Text: (§1) A standard greenhouse herbicide activity screening system was used to evaluate the herbicidal efficacy and crop safety of these test compounds. Seven broadleaf weed species including redroot pigweed (Amaranthus retroflexus, AMARE), velvetleaf (Abutilon theophrasti, ABUTH), sicklepod (Cassia obtusifolia, CASOB), ivyleaf morningglory (Ipomoea hederacea, IPOHE), lambsquarters (Chenopodium album, CHEAL), common ragweed (Ambrosia artemisiifolia L., AMBEL), and cocklebur (Xanthium strumarium, XANST) were used as test species. Four grass weed species including green foxtail (Setaria viridis, SETVI), barnyardgrass (Echinochloa crus-galli, ECHCG), johnsongrass (Sorghum halepense, SORHA), and large crabgrass (Digitaria sanguinalis, DIGSA) were also used. In addition, three crop species, field corn (Zea mays L., var. Dekalb 527, CORN), soybean (Glycine max L., var. Pella 86, SOY), and upland rice (Ory0a sp., var.Tebonnet, RICE) were included.
(§2) All plants were grown in 10 cm square plastic pots which were filled with a sandy loam soil mix. For pre-emerge tests, seeds were planted one day prior to application of the test compounds. For post-emerge tests, seeds were planted 8-21 days prior to the test to allow emergence and good foliage development prior to application of the test substances. At the time of the post-emerge application, plants of all species were usually at the 2-3 leaf stage of development.
(§3) All test compounds were dissolved in acetone and applied to the test units in a volume of 187 l/ha. Test materials were applied at rates ranging from 15 g ai/ha to 1000 g ai/ha using a track sprayer equipped with a TJ8001E even flow flat fan spray nozzle. Plants were arranged on a shelf so that the top of the canopy (post-emerge) or top of the soil surface (pre-emerge) was 40-45 cm below the nozzle. Pressurized air was used to force the test solution through the nozzle as it was mechanically advanced over the top of all test plants/pots. This application simulates a typical commercial field herbicide application.
(§4) In the post-emerge test, a commercial non-ionic surfactant was also included (0.25% v/v) to enhance wetting of the leaf surfaces of target plants. Immediately after application, test units of the pre-emerge applications were watered at the soil surface to incorporate the test materials.
(§5) At 14 days after application of the test materials, phytotoxicity ratings were recorded. A rating scale of 0-100 was used as previously described in Research Methods in Weed Science, 2nd edition, B. Truelove, Ed., Southern Weed Science Society, Auburn University, Auburn, Ala., 1977. Briefly, “0” corresponds to no damage and “100” corresponds to complete death of all plants in the test unit. This scale was used both to determine efficacy against weed species and damage to crop species. Herbicide activity data for various compounds of this invention, which are shown by compound No. in Tables 1-14, are shown in Tables 16 and 17.

[2] = system: field corn (Zea mays L., var. Dekalb 527, CORN); test: Pre-emerge greenhouse crop damage test
Text: as §1, §2, §3, §4, §5

[3] = system: soybean (Glycine max L., var. Pella 86, SOY); test: Pre-emerge greenhouse crop damage test
Text: as §1, §2, §3, §4, §5

[4] = system: ivyleaf morningglory (Ipomoea hederacea, IPOHE); test: Post-emerge greenhouse herbicide test; details: 250 g ai/ha, 14 days after application
Text: as §1, §2, §3, §4, §5

[5] = system: velvetleaf (Abutilon theophrasti, ABUTH); test: Post-emerge greenhouse herbicide test; details: 250 g ai/ha, 14 days after application
Text: as §1, §2, §3, §4, §5

[6] = system: redroot pigweed (Amaranthus retroflexus, AMARE); test: Post-emerge greenhouse herbicide test; details: 250 g ai/ha, 14 days after application
Text: as §1, §2, §3, §4, §5

[7] = system: barnyardgrass (Echinochloa crus-galli, ECHCG); test: Post-emerge greenhouse herbicide test; details: 250 g ai/ha, 14 days after application
Text: as §1, §2, §3, §4, §5

[8] = system: sicklepod (Cassia obtusifolia, CASOB); test: Post-emerge greenhouse herbicide test; details: 250 g ai/ha, 14 days after application
Text: as §1, §2, §3, §4, §5

[9] = system: johnsongrass (Sorghum halepense, SORHA); test: Post-emerge greenhouse herbicide test; details: 250 g ai/ha, 14 days after application
Text: as §1, §2, §3, §4, §5

[10] = system: large crabgrass (Digitaria sanguinalis, DIGSA); test: Post-emerge greenhouse herbicide test; details: 250 g ai/ha, 14 days after application
Text: as §1, §2, §3, §4, §5

[11] = system: lambsquarters (Chenopodium album, CHEAL); test: Post-emerge greenhouse herbicide test; details: 250 g ai/ha, 14 days after application
Text: as §1, §2, §3, §4, §5

[12] = system: green foxtail (Setaria viridis, SETVI); test: Post-emerge greenhouse herbicide test; details: 250 g ai/ha, 14 days after application
Text: as §1, §2, §3, §4, §5

[13] = system: upland rice (Ory0a sp., var.Tebonnet, RICE); test: Post-emerge greenhouse crop damage test
Text: as §1, §2, §3, §4, §5

[14] = system: field corn (Zea mays L., var. Dekalb 527, CORN); test: Post-emerge greenhouse crop damage test
Text: as §1, §2, §3, §4, §5

[15] = system: soybean (Glycine max L., var. Pella 86, SOY); test: Post-emerge greenhouse crop damage test
Text: as §1, §2, §3, §4, §5

[16] = system: ivyleaf morningglory (Ipomoea hederacea, IPOHE); test: Pre-emerge greenhouse herbicide test; details: 250 g ai/ha, 14 days after application, scale 0-100 (0 no damage, 100 complete death)
Text: as §1, §2, §3, §4, §5

[17] = system: velvetleaf (Abutilon theophrasti, ABUTH); test: Pre-emerge greenhouse herbicide test; details: 250 g ai/ha, 14 days after application, scale 0-100 (0 no damage, 100 complete death)
Text: as §1, §2, §3, §4, §5

[18] = system: redroot pigweed (Amaranthus retroflexus, AMARE); test: Pre-emerge greenhouse herbicide test; details: 250 g ai/ha, 14 days after application, scale 0-100 (0 no damage, 100 complete death)
Text: as §1, §2, §3, §4, §5

[19] = system: barnyardgrass (Echinochloa crus-galli, ECHCG); test: Pre-emerge greenhouse herbicide test; details: 250 g ai/ha, 14 days after application, scale 0-100 (0 no damage, 100 complete death)
Text: as §1, §2, §3, §4, §5

[20] = system: sicklepod (Cassia obtusifolia, CASOB); test: Pre-emerge greenhouse herbicide test; details: 250 g ai/ha, 14 days after application, scale 0-100 (0 no damage, 100 complete death)
Text: as §1, §2, §3, §4, §5

[21] = system: johnsongrass (Sorghum halepense, SORHA); test: Pre-emerge greenhouse herbicide test; details: 250 g ai/ha, 14 days after application, scale 0-100 (0 no damage, 100 complete death)
Text: as §1, §2, §3, §4, §5

[22] = system: large crabgrass (Digitaria sanguinalis, DIGSA); test: Pre-emerge greenhouse herbicide test; details: 250 g ai/ha, 14 days after application, scale 0-100 (0 no damage, 100 complete death)
Text: as §1, §2, §3, §4, §5

[23] = system: lambsquarters (Chenopodium album, CHEAL); test: Pre-emerge greenhouse herbicide test; details: 250 g ai/ha, 14 days after application, scale 0-100 (0 no damage, 100 complete death)
Text: as §1, §2, §3, §4, §5

[24] = system: green foxtail (Setaria viridis, SETVI); test: Pre-emerge greenhouse herbicide test; details: 250 g ai/ha, 14 days after application, scale 0-100 (0 no damage, 100 complete death)
Text: as §1, §2, §3, §4, §5

[25] = var. Tebonnet, upland rice (Ory0a sp.), 14 days
[26] = var. Dekalb 527, field corn (Zea mays L.), in vivo, 14 days
[27] = var. Pella 86, soybean (Glycine max L.), in vivo, 14 days
[28] = var. Tebonnet, upland rice (Ory0a sp.), in vivo, 14 days
[29] = pre-emerge, 250 g ai/ha, 14 days after application, scale 0-100 (0 no damage, 100 complete death)
[30] = 250 g ai/ha, post-emerge, 14 days after application

| SMILES | Pre-emerge Herbicidal Activity RICE (crop damage rating) [1, 25] | Pre-emerge Herbicidal Activity CORN (crop damage rating) [2, 26] | Post-emerge Herbicidal Activity IPOHE (phytotoxicity rating 0-100) [4] | Post-emerge Herbicidal Activity ABUTH (phytotoxicity rating 0-100) [5] | Post-emerge Herbicidal Activity AMARE (phytotoxicity rating 0-100) [6] | Post-emerge Herbicidal Activity ECHCG (phytotoxicity rating 0-100) [7] | Post-emerge Herbicidal Activity CASOB (phytotoxicity rating 0-100) [8] | Post-emerge Herbicidal Activity SORHA (phytotoxicity rating 0-100) [9] | Post-emerge Herbicidal Activity DIGSA (phytotoxicity rating 0-100) [10] | Post-emerge Herbicidal Activity CHEAL (phytotoxicity rating 0-100) [11] | Post-emerge Herbicidal Activity SETVI (phytotoxicity rating 0-100) [12] | Pre-emerge Herbicidal Activity IPOHE (phytotoxicity rating) [16] | Pre-emerge Herbicidal Activity ABUTH (phytotoxicity rating) [17] | Pre-emerge Herbicidal Activity AMARE (phytotoxicity rating) [18] | Pre-emerge Herbicidal Activity ECHCG (phytotoxicity rating) [19] | Pre-emerge Herbicidal Activity CASOB (phytotoxicity rating) [20] | Pre-emerge Herbicidal Activity SORHA (phytotoxicity rating) [21] | Pre-emerge Herbicidal Activity DIGSA (phytotoxicity rating) [22] | Pre-emerge Herbicidal Activity CHEAL (phytotoxicity rating) [23] | Pre-emerge Herbicidal Activity SETVI (phytotoxicity rating) [24] | further results |
| --- | --- | --- | --- | --- | --- | --- | --- | --- | --- | --- | --- | --- | --- | --- | --- | --- | --- | --- | --- | --- | --- |
| CCc1nc2c(-n3c(=O)n4n(c3=S)CCC=C4)c(F)cc(Cl)c2o1 [Compound 8-1, 8-(7-Chloro-2-ethyl-5-fluorobenzoxazol-4-yl)-1,6,8-triazabicyclo[4,3,0]2-nonene-9-one-7-thione] | 20 | 50 | 100 | 100 | 100 | 90 | 100 | 99 | 70 | 99 | 100 | 60 | 100 | 100 | 90 | 90 | 100 | 100 | 100 | 100 | Pre-emerge Herbicidal Activity SOY (crop damage rating) [3, 27]: 60; Post-emerge crop damage RICE (phytotoxicity rating 0-100) [13, 28]: 80; Post-emerge crop damage CORN (phytotoxicity rating 0-100) [14, 26]: 80; Post-emerge crop damage SOY (phytotoxicity rating 0-100) [15, 27]: 100 |
| Cn1c(C(F)(F)F)cc(=O)n(-c2c(F)cc(Cl)c3c2N=C(c2ccccc2)CO3)c1=O [Compound 1-3, 3-(8-Chloro-6-fluoro-3-phenyl-2H-1,4-benzoxazin-5-yl)-1-methyl-6-trifluoromethyl-2,4(1H,3H)-pyrimidindione] | 10 | 0 | 30 | 90 | 60 | 0 | 0 | 0 | 0 | 20 | 0 | 0 | 80 | 100 | 0 | 80 | 0 | 0 | 100 | 80 | Pre-emerge Herbicidal Activity SOY (crop damage rating) [3, 27]: 0; Post-emerge crop damage RICE (phytotoxicity rating 0-100) [13, 28]: 20; Post-emerge crop damage CORN (phytotoxicity rating 0-100) [14, 26]: 10; Post-emerge crop damage SOY (phytotoxicity rating 0-100) [15, 27]: 30 |
| Cn1c(C(F)(F)F)cc(=O)n(-c2c(F)cc(Cl)c3c2NC(=O)CO3)c1=O [Compound 4-1] | – | – | 100 | 100 | 100 | 30 | 80 | 40 | 30 | 100 | 10 | 100 | 100 | 100 | 70 | 100 | 95 | 100 | 100 | 100 | Pre-emerge Herbicidal Activity RICE (crop damage rating) [1]: 90; Pre-emerge Herbicidal Activity CORN (crop damage rating) [2, 29]: 90; Pre-emerge Herbicidal Activity SOY (crop damage rating) [3, 29]: 100; Post-emerge crop damage RICE (phytotoxicity rating 0-100) [13, 30]: 65; Post-emerge crop damage CORN (phytotoxicity rating 0-100) [14, 30]: 70; Post-emerge crop damage SOY (phytotoxicity rating 0-100) [15, 30]: 100 |
| CC1Oc2c(Cl)cc(F)c(-n3c(=O)cc(C(F)(F)F)n(C)c3=O)c2NC1=O (stereo not drawn) [Compound 4-3, 3-(8-Chloro-6-fluoro-2-methyl-2H-1,4-benzoxazin-3-one-5-yl)-1-methyl-6-trifluoromethyl-2,4(1H,3H)-pyrimidindione] | 99 | 99 | 100 | 100 | 100 | 80 | 95 | 90 | 70 | 100 | 50 | 100 | 100 | 100 | 99 | 100 | 100 | 100 | 100 | 100 | Pre-emerge Herbicidal Activity SOY (crop damage rating) [3, 27]: 100; Post-emerge crop damage RICE (phytotoxicity rating 0-100) [13, 28]: 80; Post-emerge crop damage CORN (phytotoxicity rating 0-100) [14, 26]: 100; Post-emerge crop damage SOY (phytotoxicity rating 0-100) [15, 27]: 100 |
